The experiment concerns rat pancreatic α-cells. Put plainly: Ca2+-dependent exocytosis (cell capacitance) in single rat pancreatic α-cells. The format is cell-based. The protocol:
Male Lewis rats (250-300 g; Møllegaard, Lille Skensved, Denmark) were anaesthetised by pentobarbital (100 mg/kg i.p.). After removal of the pancreas, islets were isolated by collagenase digestion and dispersed into single cells using dispase (Sigma). The α-cells were then separated by fluorescence-activated cell sorting as described elsewhere (Josefsen et al. J. Endocrinol., Vol.149, pp.145-154, 1996). Based on the hormone contents and their glucose sensitivities, we estimate that the preparation contains >80% α-cells and <3% β-cells. […]
Patch pipettes were drawn from borosilicate glass capillaries. […] The currents were recorded using an Axopatch 200B patch clamp amplifier (Axon Instruments, Foster City, Calif., USA), digitized and stored in a computer using the Digidata AD-converter and the software pClamp (version 6.0; Axon Instruments). Alternatively, KATP-currents were recorded using an EPC-9 patch clamp amplifier and the Pulse software (v. 8.01; HEKA Elektronik, Lamprecht/Pfalz, Germany). Exocytosis was monitored as increases in cell membrane capacitance (Neher & Marty Proc. Natl. Acad, Sci. USA, Vol. 79, pp. 6712-6716,1982) using the standard whole-cell configuration of the patch-clamp technique and an EPC-9 patch-clamp amplifier and the Pulse software (v. 8.01; HEKA Elektronik). […]

Structures are written as SMILES.

With `COc1cccc(C(CC2=NCCN2)c2ccccn2)c1` (single isomer, unassigned; (-)) [compound (Ex 2), (−)-2-(2-(4,5-Dihydro-1H-imidazol-2-yl)-1-(3-methoxyphenyl)ethyl)pyridine], the “rate of exocytosis (ΔCm/Δt) measured over the first 60 s after establishment of the whole-cell configuration” value (100 μM compound in pipette solution, free Ca2+ 2 μM, control 16.8±2.5 fF/s, n=5) was found to be 4.6±0.7 fF/s. For the same molecule, the “effect on Ca2+-dependent exocytosis (in words)” value (0.1 mM compound, Ca2+ 2 μM) is recorded as “strong inhibition of the exocytotic response”.

The values are drawn from US20020132812A1, “Oral hypoglycaemic agents” (priority 2000, published 2002).
